In ChEMBL document CHEMBL1150488 (1993):
In brackets after ≈: the same amount, converted by molar mass.

Legend:
Bacteroides fragilis [1] = assay: Tested for zone of inhibition against Bacteroides fragilis UC6513 (1 mg/mL, 80 microL/12.7 mm); format: functional
[2] = system: Staphylococcus epidermidis; assay: Tested for zone of inhibition against Staphylococcus epidermidis UC719 (1 mg/mL, 80 microL/6.5 mm); format: functional
Staphylococcus aureus [3] = assay: Tested for zone of inhibition against Staphylococcus aureus UC3665 (1 mg/mL, 80 microL/12.7 mm); format: functional
Staphylococcus aureus [4] = assay: Tested for zone of inhibition against Staphylococcus aureus UC6685 (1 mg/mL, 80 microL/6.5 mm); format: functional
Clostridium perfringens [5] = assay: Tested for zone of inhibition against Clostridium perfringens UC6509; format: functional
Mycobacterium avium = assay: The compound (1 mg/mL, 80 microL/12.7 mm) was tested for zone of inhibition against Mycobacterium avium UC159; Tr = trace; format: functional, organism-based
Clostridium perfringens [6] = assay: The compound (1 mg/mL, 80 microL/12.7 mm) was tested for zone of inhibition against Clostridium perfringens UC6509; Tr = trace; format: functional, organism-based
Staphylococcus aureus [7] = assay: The compound (1 mg/mL, 80 microL/12.7 mm) was tested for zone of inhibition against Staphylococcus aureus UC3665 (18H -, H: Hazy zone); format: functional
Clostridium perfringens [8] = assay: The compound (1 mg/mL, 80 microL/12.7 mm) was tested for zone of inhibition against Clostridium perfringens UC6509 (33H -, H: Hazy zone); format: functional
Staphylococcus aureus [9] = assay: The compound (1 mg/mL, 80 microL/6.5 mm) was tested for zone of inhibition against Staphylococcus aureus UC6685; Tr = trace; format: functional, organism-based
Fusobacterium nucleatum = assay: Tested in vitro for its antibacterial activity against Fusobacterium nucleatum UC6324; format: functional
Cutibacterium acnes = assay: Tested in vitro for its antibacterial activity against Propionibacterium acnes UC6564; format: functional
[10] = system: Parabacteroides distasonis; assay: Tested in vitro for its antibacterial activity against Bacteroides distasonis UC6518; format: functional
[11] = system: Prevotella melaninogenica; assay: Tested in vitro for its antibacterial activity against Bacteroides melaninogenicus UC 6523; format: functional
[12] = system: Staphylococcus epidermidis; assay: The compound (1 mg/mL, 80 microL/6.5 mm) was tested for zone of inhibition against Staphylococcus epidermidis UC719; Tr = trace; format: functional, organism-based
Bacteroides fragilis [13] = assay: Tested in vitro for its antibacterial activity against Bacteroides fragilis UC9370 [clindamycin 1 micro g/mL]; format: functional
[14] = Tested in vitro for its antibacterial activity against Peptococcus variabilis UC6320; format: functional
Clostridium perfringens [15] = assay: Tested in vitro for its antibacterial activity against Clostridium perfringens UC6509; format: functional
[16] = system: Staphylococcus epidermidis; assay: The compound (1 mg/mL, 80 microL/6.5 mm) was tested for zone of inhibition against Staphylococcus epidermidis UC719 (14H -, H: Hazy zone); format: functional
[17] = system: Bacteroides thetaiotaomicron; assay: Tested in vitro for its antibacterial activity against Bacteroides thetaiotaomicron UC 9014[clindamycin 2 micro g/mL]; format: functional
[18] = system: Bacteroides thetaiotaomicron; assay: The compound (1 mg/mL, 80 microL/6.5 mm) was tested for zone of inhibition against Bacteroides thetaiotaomicron UC 6360; format: functional
[19] = system: Bacteroides thetaiotaomicron; assay: The compound was tested in vitro for its antibacterial activity against Bacteroides thetaiotaomicron UC 6360; format: functional
Streptococcus pyogenes = assay: Tsted in vitro for its antibacterial activity against Streptococcus pyogenes UC152; format: functional
Bacteroides fragilis [20] = assay: The compound was tested in vitro for its antibacterial activity against Bacteroides fragilis UC9370; format: functional
Escherichia coli = assay: Tested in vitro for its antibacterial activity against Escherichia coli UC9379; format: functional

CCCCCC(=O)N1C/C(=C(\C)CN=[N+]=[N-])C1=O
Diameter of inhibition zone (Bacteroides fragilis [1]): 52 mm
Diameter of inhibition zone [2]: 19 mm
Diameter of inhibition zone (Staphylococcus aureus [3]): 27 mm
Diameter of inhibition zone (Staphylococcus aureus [4]): 27 mm

CCCCOC(=O)N1C/C(=C(\C)CN=[N+]=[N-])C1=O
Diameter of inhibition zone (Bacteroides fragilis [1]): 37 mm
Diameter of inhibition zone (Clostridium perfringens [5]): 36 mm
Diameter of inhibition zone [2]: 32 mm
Diameter of inhibition zone (Staphylococcus aureus [3]): 30 mm
Diameter of inhibition zone (Staphylococcus aureus [4]): 39 mm

CCCC(=O)OC/C(C)=C1/CN(C(=O)c2ccccc2)C1=O
Diameter of inhibition zone (Bacteroides fragilis [1]): 0 mm
Diameter of inhibition zone (Mycobacterium avium): Trace
Diameter of inhibition zone [2]: 0 mm
Diameter of inhibition zone (Staphylococcus aureus [3]): 16 mm
Diameter of inhibition zone (Clostridium perfringens [6]): Trace
Diameter of inhibition zone (Staphylococcus aureus [4]): 0 mm

CCCC(=O)OC[C@@H](C)[C@H]1CN(C(=O)c2ccccc2)C1=O
Diameter of inhibition zone (Bacteroides fragilis [1]): 24 mm
Diameter of inhibition zone [2]: 0 mm
Diameter of inhibition zone (Staphylococcus aureus [7]): 18 mm
Diameter of inhibition zone (Clostridium perfringens [8]): 33 mm
Diameter of inhibition zone (Staphylococcus aureus [4]): 0 mm

CCCCCC(=O)N1C/C(=C(\C)Cn2nnc(C(=O)OC)c2C(=O)OC)C1=O
Diameter of inhibition zone (Bacteroides fragilis [1]): 17 mm
Diameter of inhibition zone (Clostridium perfringens [5]): 0 mm
Diameter of inhibition zone [2]: 0 mm
Diameter of inhibition zone (Staphylococcus aureus [3]): 0 mm
Diameter of inhibition zone (Staphylococcus aureus [9]): Trace

C[C@H]1[C@H](NC(=O)/C(=N\OC(C)(C)C(=O)O)c2csc(N)n2)C(=O)N1S(=O)(=O)O [AZTREONAM]
MIC (Fusobacterium nucleatum): 4 µg/mL (≈ 9.19 µM)
MIC (Cutibacterium acnes): 2 µg/mL (≈ 4.59 µM)
MIC [10]: 64 µg/mL (≈ 147 µM)
MIC [11]: 4 µg/mL (≈ 9.19 µM)

CC(=O)OC[C@H](C)[C@H]1CN(C(C)=O)C1=O
Diameter of inhibition zone (Bacteroides fragilis [1]): 20 mm
Diameter of inhibition zone (Clostridium perfringens [5]): 0 mm
Diameter of inhibition zone [2]: 0 mm
Diameter of inhibition zone (Staphylococcus aureus [3]): 0 mm
Diameter of inhibition zone (Staphylococcus aureus [4]): 0 mm

CCCCCC(=O)N1C[C@H]([C@H](C)Cn2nnc(C(=O)OC)c2C(=O)OC)C1=O
Diameter of inhibition zone (Bacteroides fragilis [1]): 65 mm
Diameter of inhibition zone [2]: 0 mm
Diameter of inhibition zone (Staphylococcus aureus [3]): 0 mm
Diameter of inhibition zone (Staphylococcus aureus [4]): 0 mm

CCCC(=O)N1C/C(=C(\C)COC(C)=O)C1=O
Diameter of inhibition zone (Bacteroides fragilis [1]): 31 mm
Diameter of inhibition zone (Clostridium perfringens [5]): 0 mm
Diameter of inhibition zone (Staphylococcus aureus [3]): 18 mm
Diameter of inhibition zone (Staphylococcus aureus [4]): 8 mm
Diameter of inhibition zone [12]: Trace

CCCCCC(=O)N1C[C@H]([C@H](C)CNC(C)=O)C1=O
Diameter of inhibition zone (Bacteroides fragilis [1]): 76 mm
Diameter of inhibition zone (Staphylococcus aureus [3]): 19 mm
Diameter of inhibition zone [12]: Trace
Diameter of inhibition zone (Staphylococcus aureus [9]): Trace

CCCC(=O)OC[C@H](C)[C@H]1CN(C(=O)CCC)C1=O
Diameter of inhibition zone (Bacteroides fragilis [1]): 41 mm
MIC (Bacteroides fragilis [13]): 256 µg/mL (≈ 950 µM)
Diameter of inhibition zone (Clostridium perfringens [5]): 33 mm
MIC (Fusobacterium nucleatum): 256 µg/mL (≈ 950 µM)
Diameter of inhibition zone (Staphylococcus aureus [3]): 0 mm
MIC (Cutibacterium acnes): 64 µg/mL (≈ 238 µM)
MIC [14]: 256 µg/mL (≈ 950 µM)
MIC (Clostridium perfringens [15]): > 256 µg/mL
MIC [10]: 256 µg/mL (≈ 950 µM)
MIC [11]: 64 µg/mL (≈ 238 µM)
Diameter of inhibition zone [16]: 14 mm
MIC [17]: 128 µg/mL (≈ 475 µM)
Diameter of inhibition zone (Staphylococcus aureus [9]): Trace

CCCC(=O)OC/C(C)=C1/CN(C(=O)CCC)C1=O
Diameter of inhibition zone (Bacteroides fragilis [1]): 21 mm
Diameter of inhibition zone (Clostridium perfringens [5]): 0 mm
Diameter of inhibition zone [2]: 0 mm
Diameter of inhibition zone (Staphylococcus aureus [3]): 0 mm
Diameter of inhibition zone (Staphylococcus aureus [4]): 0 mm

CCCC(=O)N1C/C(=C(/C)COC(C)=O)C1=O
Diameter of inhibition zone (Bacteroides fragilis [1]): 31 mm
Diameter of inhibition zone [2]: 0 mm
Diameter of inhibition zone (Staphylococcus aureus [3]): 0 mm
Diameter of inhibition zone (Staphylococcus aureus [4]): 0 mm

CCCCCC(=O)OC/C(C)=C1/CN(C(=O)CCCCC)C1=O
Diameter of inhibition zone (Bacteroides fragilis [1]): 0 mm
Diameter of inhibition zone (Clostridium perfringens [5]): 0 mm
Diameter of inhibition zone [2]: 0 mm
Diameter of inhibition zone (Staphylococcus aureus [3]): 0 mm
Diameter of inhibition zone (Staphylococcus aureus [4]): 0 mm

CC(=O)OC[C@@H](C)[C@H]1CN(C(C)=O)C1=O
Diameter of inhibition zone (Bacteroides fragilis [1]): 52 mm
Diameter of inhibition zone [18]: 0 mm
MIC [19]: 128 µg/mL (≈ 600 µM)
MIC (Streptococcus pyogenes): > 512 µg/mL
Diameter of inhibition zone (Clostridium perfringens [5]): 36 mm
MIC (Fusobacterium nucleatum): 128 µg/mL (≈ 600 µM)
Diameter of inhibition zone (Staphylococcus aureus [3]): 0 mm
MIC (Cutibacterium acnes): > 256 µg/mL
MIC (Bacteroides fragilis [20]): 256 µg/mL (≈ 1200 µM)
MIC [14]: > 256 µg/mL
MIC (Clostridium perfringens [15]): > 256 µg/mL
MIC [10]: > 256 µg/mL
MIC [11]: 128 µg/mL (≈ 600 µM)
Diameter of inhibition zone (Staphylococcus aureus [4]): 0 mm
MIC (Escherichia coli): > 512 µg/mL
